Data as given in patent publication US20060257843A1 (priority 2002, published 2006).
Where “and” joins values, the source holds several entries; their conditions need not be identical. Equal values may be shown once. Entries after “also recorded” stand apart in the source; their conditions may differ. Bridge positions count the residues as written; N and C are the ends. Square brackets hold non-standard residues; d marks the D form. Peptide text beside a SMILES is read from it. Hyp = O=C(O)[C@@H]1C[C@@H](O)CN1

Legend:
[1] = test system: primary cultures of cortex; type: cell-based, rat
cardiac myocytes = type: cell-based, rat
[2] = test system: primary cultures of cortex
[3] = test system: primary cultures of cortex; type: cell-based, rat; remark: listed apart in the source
Kv1.1 = biological target: T1, Kv1.1 (Homo sapiens, UniProt Q09470); details: cited from earlier work
T1 construct: host or cells: oocytes
T1 sequence (Q09470 whole entry): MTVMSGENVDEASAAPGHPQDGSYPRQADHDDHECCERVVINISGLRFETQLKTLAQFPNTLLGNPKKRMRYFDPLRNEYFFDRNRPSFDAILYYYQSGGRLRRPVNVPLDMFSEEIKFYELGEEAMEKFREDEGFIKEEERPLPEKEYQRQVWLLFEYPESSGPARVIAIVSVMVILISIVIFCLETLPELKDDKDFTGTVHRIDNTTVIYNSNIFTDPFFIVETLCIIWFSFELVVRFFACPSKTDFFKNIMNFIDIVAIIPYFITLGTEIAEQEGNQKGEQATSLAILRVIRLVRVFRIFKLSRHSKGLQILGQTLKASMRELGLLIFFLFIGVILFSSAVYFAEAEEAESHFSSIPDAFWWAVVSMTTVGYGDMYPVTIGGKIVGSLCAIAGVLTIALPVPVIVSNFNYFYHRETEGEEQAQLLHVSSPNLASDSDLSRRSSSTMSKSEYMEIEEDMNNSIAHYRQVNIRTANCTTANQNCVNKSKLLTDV

[4] = test system: New Zealand White rabbits; details: rabbit, in vivo
F425G Shaker mutation = F425G Shaker mutation (Drosophila melanogaster, UniProt P08510, F425G); details: cited from earlier work
F425G Shaker mutation, sequence (P08510 whole entry F425G): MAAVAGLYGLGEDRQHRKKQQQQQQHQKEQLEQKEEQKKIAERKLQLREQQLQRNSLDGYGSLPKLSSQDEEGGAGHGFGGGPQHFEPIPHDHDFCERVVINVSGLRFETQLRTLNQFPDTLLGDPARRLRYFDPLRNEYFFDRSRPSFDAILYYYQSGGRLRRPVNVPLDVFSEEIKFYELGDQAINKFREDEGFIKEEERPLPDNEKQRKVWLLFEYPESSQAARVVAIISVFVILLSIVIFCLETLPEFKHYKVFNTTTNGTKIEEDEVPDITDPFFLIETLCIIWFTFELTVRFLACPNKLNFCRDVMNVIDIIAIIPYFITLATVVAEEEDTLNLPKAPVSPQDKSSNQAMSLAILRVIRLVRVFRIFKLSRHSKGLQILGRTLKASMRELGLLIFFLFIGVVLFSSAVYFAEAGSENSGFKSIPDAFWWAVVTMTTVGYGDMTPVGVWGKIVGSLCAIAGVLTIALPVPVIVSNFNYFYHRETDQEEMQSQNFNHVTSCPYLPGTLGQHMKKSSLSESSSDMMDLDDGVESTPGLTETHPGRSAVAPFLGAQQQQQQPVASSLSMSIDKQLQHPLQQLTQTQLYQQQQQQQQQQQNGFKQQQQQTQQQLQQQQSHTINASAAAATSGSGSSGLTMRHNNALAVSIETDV

[5] = test system: ventricular myocytes, cortex and trachea; type: cell-based, rat
[6] = test system: primary cultures of cortical neurons; type: cell-based, rat
Kv1.3 = biological target: T2, Kv1.3 (Homo sapiens, UniProt P22001); details: cited from earlier work
T2 construct: host or cells: oocytes
T2 sequence (P22001 whole entry): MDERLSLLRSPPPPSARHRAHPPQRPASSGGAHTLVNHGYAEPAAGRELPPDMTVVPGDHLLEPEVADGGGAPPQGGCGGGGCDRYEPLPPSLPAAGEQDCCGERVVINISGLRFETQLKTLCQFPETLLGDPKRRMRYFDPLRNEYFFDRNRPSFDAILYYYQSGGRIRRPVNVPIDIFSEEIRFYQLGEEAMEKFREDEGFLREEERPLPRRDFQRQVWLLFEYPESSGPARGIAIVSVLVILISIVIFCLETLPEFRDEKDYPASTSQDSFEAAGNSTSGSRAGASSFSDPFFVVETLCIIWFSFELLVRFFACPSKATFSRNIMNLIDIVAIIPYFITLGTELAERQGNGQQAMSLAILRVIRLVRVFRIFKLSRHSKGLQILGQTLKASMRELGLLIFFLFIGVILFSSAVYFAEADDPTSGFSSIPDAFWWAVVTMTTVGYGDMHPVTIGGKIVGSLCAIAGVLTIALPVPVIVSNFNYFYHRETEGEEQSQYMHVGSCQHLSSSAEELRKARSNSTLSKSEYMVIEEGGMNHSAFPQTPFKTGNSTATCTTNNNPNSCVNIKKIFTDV

anesthetized rat = details: in vivo, iv
[7] = biological target: Shaker H4 potassium channel (Drosophila melanogaster, UniProt P08510); details: cited from earlier work
Shaker H4 potassium channel, sequence (P08510 whole entry): as the sequence (P08510 whole entry F425G) above, with G425F counted along it

[8] = test system: cardiac ventricular myocytes; type: cell-based, rat
[9] = test system: primary cortical cultures
[10] = test system: primary cultures of ventricular myocytes
canine model of AMI = details: dog, in vivo
[11] = test system: primary cultures of cortex; type: cell-based, rat; remark: listed apart in the source
Kv1.4 = Kv1.4 (Homo sapiens, UniProt P22459); details: cited from earlier work
Kv1.4, sequence (P22459 whole entry): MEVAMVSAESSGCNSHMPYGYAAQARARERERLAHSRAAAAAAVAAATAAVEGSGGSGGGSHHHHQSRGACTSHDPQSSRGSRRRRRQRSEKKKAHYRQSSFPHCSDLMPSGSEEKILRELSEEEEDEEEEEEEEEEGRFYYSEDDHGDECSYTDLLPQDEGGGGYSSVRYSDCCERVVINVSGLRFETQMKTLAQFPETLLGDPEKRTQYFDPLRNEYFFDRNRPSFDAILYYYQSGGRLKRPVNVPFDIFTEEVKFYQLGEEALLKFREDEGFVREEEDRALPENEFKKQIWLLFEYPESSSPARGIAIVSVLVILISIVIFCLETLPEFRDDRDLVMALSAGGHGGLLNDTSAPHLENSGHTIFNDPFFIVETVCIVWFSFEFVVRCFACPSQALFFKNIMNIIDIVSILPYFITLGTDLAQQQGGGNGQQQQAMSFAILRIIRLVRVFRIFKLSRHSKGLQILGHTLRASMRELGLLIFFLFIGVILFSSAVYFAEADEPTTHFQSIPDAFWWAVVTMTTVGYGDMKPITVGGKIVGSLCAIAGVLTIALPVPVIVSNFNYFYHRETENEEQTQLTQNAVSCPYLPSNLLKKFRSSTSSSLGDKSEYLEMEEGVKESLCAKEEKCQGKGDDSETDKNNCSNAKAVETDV

SMILES: CC[C@H](C)[C@@H]1NC(=O)[C@H](CCCNC(=N)N)NC(=O)[C@@H](N)CSSC[C@@H]2NC(=O)[C@@H]3CSSC[C@@H](C(=O)N[C@H](C(=O)O)C(C)C)NC(=O)[C@H](CCCCN)NC(=O)[C@H](CC(N)=O)NC(=O)[C@H](Cc4ccccc4)NC(=O)[C@H](CCCNC(=N)N)NC(=O)[C@H](CC(N)=O)NC(=O)[C@H](CSSC[C@H](NC(=O)[C@H](CCCCN)NC(=O)[C@H](CCC(N)=O)NC(=O)[C@H](CC(N)=O)NC(=O)[C@@H]4C[C@@H](O)CN4C1=O)C(=O)N[C@@H](Cc1ccccc1)C(=O)N[C@@H](CCC(N)=O)C(=O)N[C@@H](Cc1c[nH]cn1)C(=O)N[C@@H](CC(C)C)C(=O)N[C@@H](CC(=O)O)C(=O)N[C@@H](CC(=O)O)C(=O)N3)NC(=O)[C@H](CCCCN)NC(=O)[C@H](CCCNC(=N)N)NC(=O)[C@H](CO)NC2=O [κ-PVIIA, Cys-Xaa1-Ile-Xaa2-Asn-Gln-Xaa3-Cys-Xaa4-Gln-Xaa5-Leu-Asp-Asp-Cys-Cys-Ser-Xaa1-Xaa3-Cys-Asn-Xaa1-Xaa4-Asn-Xaa3-Cys-Val] (H-CRI[Hyp]NQKCFQHLDDCCSRKCNRFNKCV-OH; disulfide 1-16, 8-20, 15-26)
- current corrected for cell capacitance [1]: 2.4±0.7 pA/pf
- current evoked by κ-PVIIA [1]: 26.2±6.2 pA
- reversal of κ-PVIIA-induced inward current [1]: ~−20 mV
- sensitivity of evoked currents to KATP antagonists [1]: sensitive
- current corrected for cell capacitance (cardiac myocytes): 4.6±0.4 pA/pf
- current evoked by κ-PVIIA (cardiac myocytes): 87.7±5.9 pA
- experimentally determined Ek (reversal potential of evoked current) (cardiac myocytes): −23 mV
- reversal of κ-PVIIA-induced inward current (cardiac myocytes): ~−20 mV
- sensitivity of evoked currents to KATP antagonists (cardiac myocytes): sensitive
- EC50 [2]: 0.0008 pM
- initial glutamate-induced depolarization [3]: prevents the initial glutamate-induced depolarization
- activity on Kv1.1 (Kv1.1): no effects; also recorded: no detectable activity
- hemodynamic effect [4]: without any hemodynamic effect
- lowest effective dose [4]: 0.01 mg/kg
- infarct size as % of risk zone, protection ([4]; iv): equally as protective
- effect of F425G Shaker mutation on κ-PVIIA sensitivity (F425G Shaker mutation): abolishes
- protection against hypoxia-induced changes in intracellular calcium [5]: able to provide protection against hypoxia
- effect on infarct size (isolated rabbit hearts): reduced the infarct size; also recorded: no effect
- change in intracellular calcium (Fluo-3 fluorescence) [6]: −2.15±0.95% and −8.8±3.9%
- effects on Kv1.3 (Kv1.3): no effects
- effect on blood pressure (anesthetized rat): no effect
- effect on heart rate (anesthetized rat): no effect
- degree of glutamate-induced excitotoxicity (delayed cellular death) (cortical cells): effectively reduces the degree of glutamate-induced excitotoxicity in a dose-dependant manner
- protection against delayed cytotoxic effects of glutamate (cortical cells): very effective protection
- block of the Drosophila H4 shaker K+ channel [7]: block
- protection against hypoxia-induced depolarization [8]: prevented any hypoxia-induced changes in membrane potential; also recorded: protective effect
- protective effect against hypoxia induced depolarization (initial screen, Example 10) [8]: strong protective effect
- protease activity (cytotoxicity) [9]: no detectable protease activity
- EC50 [10]: 0.0009 pM
- drop in blood pressure normally seen upon reperfusion (canine model of AMI): prevented the drop in blood pressure
- lowest effective dose (canine model of AMI): 0.1 mg/kg
- effect on infarct size (canine model of AMI; iv): No significant effect
- reduction of infarct size (canine model of AMI; iv): approximately 60%
- intracellular K+ concentration (PBFI fluorescence) [11]: reduction
- activity on Kv1.4 (Kv1.4): no detectable activity
